Data reported in US10308643B2, “Heterocyclic compound” (Takeda Pharmaceutical Company Limited, priority 2015, dated 2019).

Legend:
Type in all cases: biochemical
HDAC9 enzyme = target: T1, HDAC9 enzyme (Homo sapiens, UniProt Q9UKV0); assay: HDAC9 Enzyme Inhibitory Assay (HDAC-Glo class IIa); conditions: 1 μM test compound, wells without enzyme = 100% inhibition; for inhibition at 1 µM: read-out: HDAC9 inhibitory rate (%) (1 μM)
T1 construct: transducing full length HDAC9 gene into Sf-9 insect cells; made in house; host or cells: Sf-9 insect cells
In short: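 Luminescent HDAC-Glo class IIa readout after a 20 min room-temperature reaction; relative inhibition referenced to enzyme-free wells as 100%. Test compound first preincubated 60 min with Sf-9-expressed, Ni-NTA-purified full-length HDAC9 in pH 7.5 Tris buffer containing 135 mM NaCl, 0.6 mM glutathione and 0.01% Tween-20.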

HDAC1 enzyme = target: T2, HDAC1 enzyme (Homo sapiens, UniProt Q13547); assay: HDAC1/6 Enzyme Inhibitory Assay (HDAC-Glo I/II Assay kit), HDAC1; conditions: 1 μM test compound, wells without enzyme = 100% inhibition; for inhibition at 1 µM: read-out: HDAC1 inhibitory rate (%) (1 μM)
T2 construct: transducing full length HDAC1 and HDAC6 genes into Sf-9 insect cells; GST; purchased SignalChem; host or cells: Sf-9 insect cells
In short: (§1)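 Luminescence readout (HDAC-Glo I/II) after 20 min RT reaction of GST-purified full-length HDAC1 or HDAC6 (Sf-9 expressed) with substrate-developer; enzyme and compound preincubated 60 min RT; buffer 24 mM Tris-HCl pH 7.5, 0.6 mM glutathione, 0.01% Tween-20; no-enzyme wells = 100% inhibition.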

HDAC6 enzyme = target: T3, HDAC6 enzyme (Homo sapiens, UniProt Q9UBN7); assay: HDAC1/6 Enzyme Inhibitory Assay (HDAC-Glo I/II Assay kit), HDAC6; conditions: 1 μM test compound, wells without enzyme = 100% inhibition; for inhibition at 1 µM: read-out: HDAC6 inhibitory rate (%) (1 μM)
T3 construct: transducing full length HDAC1 and HDAC6 genes into Sf-9 insect cells; GST; purchased SignalChem; host or cells: Sf-9 insect cells
T3 sequence (Q9UBN7 1-1215): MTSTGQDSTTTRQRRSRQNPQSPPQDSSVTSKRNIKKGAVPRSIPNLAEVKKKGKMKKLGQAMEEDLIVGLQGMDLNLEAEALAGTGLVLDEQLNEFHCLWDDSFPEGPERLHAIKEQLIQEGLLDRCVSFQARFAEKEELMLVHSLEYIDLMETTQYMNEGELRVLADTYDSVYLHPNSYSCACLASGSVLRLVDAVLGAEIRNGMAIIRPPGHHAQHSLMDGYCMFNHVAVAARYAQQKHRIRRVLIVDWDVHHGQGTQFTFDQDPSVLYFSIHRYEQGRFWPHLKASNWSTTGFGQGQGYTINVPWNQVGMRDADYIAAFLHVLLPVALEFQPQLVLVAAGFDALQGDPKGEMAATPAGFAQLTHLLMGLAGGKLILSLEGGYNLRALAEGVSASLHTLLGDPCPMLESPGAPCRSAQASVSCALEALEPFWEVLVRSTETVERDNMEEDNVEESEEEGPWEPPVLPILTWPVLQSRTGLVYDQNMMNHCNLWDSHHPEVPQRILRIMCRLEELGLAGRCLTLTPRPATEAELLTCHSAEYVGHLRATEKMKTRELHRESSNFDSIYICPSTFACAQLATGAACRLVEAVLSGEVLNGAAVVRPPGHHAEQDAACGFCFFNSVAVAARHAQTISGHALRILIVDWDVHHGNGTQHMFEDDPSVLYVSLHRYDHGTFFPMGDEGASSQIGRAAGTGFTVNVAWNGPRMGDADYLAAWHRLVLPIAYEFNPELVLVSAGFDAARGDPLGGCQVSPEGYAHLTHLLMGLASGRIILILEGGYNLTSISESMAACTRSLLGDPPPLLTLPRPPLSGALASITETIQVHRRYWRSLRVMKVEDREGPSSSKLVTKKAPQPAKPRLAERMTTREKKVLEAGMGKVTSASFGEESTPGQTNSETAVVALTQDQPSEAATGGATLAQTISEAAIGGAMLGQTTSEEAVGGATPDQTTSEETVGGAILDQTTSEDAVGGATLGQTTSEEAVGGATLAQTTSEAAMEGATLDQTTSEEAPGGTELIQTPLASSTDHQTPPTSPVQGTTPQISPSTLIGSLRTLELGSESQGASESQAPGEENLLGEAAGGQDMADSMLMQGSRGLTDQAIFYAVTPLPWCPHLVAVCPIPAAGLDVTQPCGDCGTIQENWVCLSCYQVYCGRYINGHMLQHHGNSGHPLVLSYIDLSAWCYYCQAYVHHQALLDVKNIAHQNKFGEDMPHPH
In short: as §1

T1 sequence (Q9UKV0 whole entry, species assumed): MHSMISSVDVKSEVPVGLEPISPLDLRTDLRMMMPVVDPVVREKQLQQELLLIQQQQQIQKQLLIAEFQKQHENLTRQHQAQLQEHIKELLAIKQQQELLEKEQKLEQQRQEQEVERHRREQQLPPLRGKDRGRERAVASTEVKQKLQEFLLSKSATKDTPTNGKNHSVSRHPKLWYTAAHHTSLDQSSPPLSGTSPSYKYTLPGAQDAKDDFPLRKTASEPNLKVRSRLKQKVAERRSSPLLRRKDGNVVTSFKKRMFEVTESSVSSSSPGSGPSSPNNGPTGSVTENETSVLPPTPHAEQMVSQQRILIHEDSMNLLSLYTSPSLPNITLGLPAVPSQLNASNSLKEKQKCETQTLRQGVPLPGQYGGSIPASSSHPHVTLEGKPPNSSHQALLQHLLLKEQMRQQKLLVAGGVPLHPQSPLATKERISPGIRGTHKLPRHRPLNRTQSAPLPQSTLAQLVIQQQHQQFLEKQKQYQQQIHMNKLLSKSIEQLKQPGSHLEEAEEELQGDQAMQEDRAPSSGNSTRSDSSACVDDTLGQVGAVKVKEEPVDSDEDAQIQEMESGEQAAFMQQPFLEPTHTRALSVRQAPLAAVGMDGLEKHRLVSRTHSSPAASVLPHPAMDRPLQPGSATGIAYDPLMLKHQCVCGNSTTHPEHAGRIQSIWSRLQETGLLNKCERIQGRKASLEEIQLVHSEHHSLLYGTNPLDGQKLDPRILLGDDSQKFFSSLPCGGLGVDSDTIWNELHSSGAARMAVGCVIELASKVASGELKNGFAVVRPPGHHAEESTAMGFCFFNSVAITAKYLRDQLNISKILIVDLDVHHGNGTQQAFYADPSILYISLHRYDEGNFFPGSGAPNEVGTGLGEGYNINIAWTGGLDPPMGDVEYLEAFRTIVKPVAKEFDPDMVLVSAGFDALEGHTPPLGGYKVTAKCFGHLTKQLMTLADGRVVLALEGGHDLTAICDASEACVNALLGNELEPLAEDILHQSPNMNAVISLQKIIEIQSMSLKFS
T2 sequence (Q13547 whole entry): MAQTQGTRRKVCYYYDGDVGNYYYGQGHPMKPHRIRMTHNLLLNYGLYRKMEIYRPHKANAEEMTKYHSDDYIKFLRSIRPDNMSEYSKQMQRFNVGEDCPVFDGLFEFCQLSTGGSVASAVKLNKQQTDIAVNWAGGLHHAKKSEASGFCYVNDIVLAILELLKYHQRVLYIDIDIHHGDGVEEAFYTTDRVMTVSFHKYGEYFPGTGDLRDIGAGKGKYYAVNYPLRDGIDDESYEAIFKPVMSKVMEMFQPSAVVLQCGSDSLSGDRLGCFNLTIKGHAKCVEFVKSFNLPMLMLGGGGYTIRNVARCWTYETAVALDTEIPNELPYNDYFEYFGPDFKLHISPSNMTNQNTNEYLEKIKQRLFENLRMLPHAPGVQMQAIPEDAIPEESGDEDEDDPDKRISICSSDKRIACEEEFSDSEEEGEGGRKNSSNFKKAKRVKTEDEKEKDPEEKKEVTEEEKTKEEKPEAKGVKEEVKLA

| Structure (SMILES) | inhibition at 1 µM (HDAC9 enzyme) [%] | inhibition at 1 µM (HDAC1 enzyme) [%] | inhibition at 1 µM (HDAC6 enzyme) [%] | HDAC9 inhibitory rate (%) (1 μM) (HDAC9 enzyme) | HDAC1 inhibitory rate (%) (1 μM) (HDAC1 enzyme) | HDAC6 inhibitory rate (%) (1 μM) (HDAC6 enzyme) |
| --- | --- | --- | --- | --- | --- | --- |
| COC1(C(=O)N[C@@H]2CCCC[C@H]2N2Cc3ccc(-c4noc(C(F)(F)F)n4)cc3C2=O)CCC1 [Example 175, 1-methoxy-N-((1R,2R)-2-(1-oxo-6-(5-(trifluoromethyl)-1,2,4-oxadiazol-3-yl)-1,3-dihydro-2H-isoindol-2-yl)cyclohexyl)cyclobutanecarboxamide] | 57 | 5 | 100 | – | – | – |
| O=C1CCCN1[C@@H]1COCC[C@H]1N1Cc2ccc(-c3noc(C(F)(F)F)n3)cc2C1=O [Example 177, 2-((3S,4R)-3-(2-oxopyrrolidin-1-yl)tetrahydro-2H-pyran-4-yl)-6-(5-(trifluoromethyl)-1,2,4-oxadiazol-3-yl)isoindolin-1-one] | 64 | 8 | 98 | – | – | – |
| O=C1CCCN1[C@@H]1CCOC[C@H]1N1Cc2ccc(-c3noc(C(F)(F)F)n3)cc2C1=O [Example 178, 2-((3S,4R)-4-(2-oxopyrrolidin-1-yl)tetrahydro-2H-pyran-3-yl)-6-(5-(trifluoromethyl)-1,2,4-oxadiazol-3-yl)isoindolin-1-one] | – | – | – | 61 | 8 | 99 |
| O=C1c2cc(-c3noc(C(F)(F)F)n3)ccc2CN1[C@@H]1COCC[C@H]1O [Example 179, 1,5-anhydro-2,4-dideoxy-2-(1-oxo-6-(5-(trifluoromethyl)-1,2,4-oxadiazol-3-yl)-1,3-dihydro-2H-isoindol-2-yl)-D-threo-pentitol] | 84 | 11 | 90 | – | – | – |
| O=C1CCCN1[C@@H]1COCC[C@H]1N1Cc2ccc(-c3noc(C(F)(F)F)n3)cc2C1=O [Example 180, 2-((3S,4R)-3-(2-oxopyrrolidin-1-yl)tetrahydro-2H-pyran-4-yl)-6-(5-(trifluoromethyl)-1,2,4-oxadiazol-3-yl)isoindolin-1-one] | – | – | – | 72 | 13 | 99 |
| O=C1CCCN1[C@H]1COCC[C@@H]1N1Cc2ccc(-c3noc(C(F)(F)F)n3)cc2C1=O [Example 181, 2-((3R,4S)-3-(2-oxopyrrolidin-1-yl)tetrahydro-2H-pyran-4-yl)-6-(5-(trifluoromethyl)-1,2,4-oxadiazol-3-yl)isoindolin-1-one] | 41 | 2 | 74 | – | – | – |
| O=C1CCCN1[C@@H]1CCOC[C@H]1N1Cc2ccc(-c3noc(C(F)(F)F)n3)cc2C1=O [Example 182, 2-((3S,4R)-4-(2-oxopyrrolidin-1-yl)tetrahydro-2H-pyran-3-yl)-6-(5-(trifluoromethyl)-1,2,4-oxadiazol-3-yl)isoindolin-1-one] | – | – | – | 71 | 10 | 98 |
| O=C1CCCN1[C@@H]1CCOC[C@H]1N1Cc2ccc(-c3noc(C(F)(F)F)n3)cc2C1=O [Example 183, 2-((3S,4R)-4-(2-oxopyrrolidin-1-yl)tetrahydro-2H-pyran-3-yl)-6-(5-(trifluoromethyl)-1,2,4-oxadiazol-3-yl)isoindolin-1-one] | – | – | – | 47 | 1 | 77 |
| O=C1CCCN1c1ccccc1N1Cc2ccc(-c3noc(C(F)(F)F)n3)cc2C1=O [Example 184, 2-(2-(2-oxopyrrolidin-1-yl)phenyl)-6-(5-(trifluoromethyl)-1,2,4-oxadiazol-3-yl)isoindolin-1-one] | 56 | 7 | 98 | – | – | – |
| O=C1CCCN1c1cccc(Cl)c1N1Cc2ccc(-c3noc(C(F)(F)F)n3)cc2C1=O [Example 185, 2-(2-chloro-6-(2-oxopyrrolidin-1-yl)phenyl)-6-(5-(trifluoromethyl)-1,2,4-oxadiazol-3-yl)isoindolin-1-one] | 41 | 5 | 97 | – | – | – |
| O=C1CCCN1[C@@H]1CCCC[C@H]1N1Cc2ncc(-c3noc(C(F)(F)F)n3)cc2C1=O [Example 186, 6-((1R,2R)-2-(2-oxopyrrolidin-1-yl)cyclohexyl)-3-(5-(trifluoromethyl)-1,2,4-oxadiazol-3-yl)-6,7-dihydro-5H-pyrrolo[3,4-b]pyridin-5-one] | 95 | 26 | 97 | – | – | – |
| O=C(N[C@@H]1CCCC[C@H]1N1Cc2ccc(-c3noc(C(F)(F)F)n3)cc2C1=O)N1CC(F)C1 [Example 187, 3-fluoro-N-((1R,2R)-2-(1-oxo-6-(5-(trifluoromethyl)-1,2,4-oxadiazol-3-yl)-1,3-dihydro-2H-isoindol-2-yl)cyclohexyl)azetidine-1-carboxamide] | 29 | 9 | 99 | – | – | – |
| CN(C)C(=O)c1ccccc1N1Cc2ccc(-c3noc(C(F)(F)F)n3)cc2C1=O [Example 188, N,N-dimethyl-2-(1-oxo-6-(5-(trifluoromethyl)-1,2,4-oxadiazol-3-yl)-1,3-dihydro-2H-isoindol-2-yl)benzamide] | 45 | 10 | 95 | – | – | – |
| O=C(N[C@@H]1CCOC[C@H]1N1Cc2ccc(-c3noc(C(F)(F)F)n3)cc2C1=O)[C@H]1CC1(F)F [Example 190, (1R)-2,2-difluoro-N-((3S,4R)-3-(1-oxo-6-(5-(trifluoromethyl)-1,2,4-oxadiazol-3-yl)-1,3-dihydro-2H-isoindol-2-yl)tetrahydro-2H-pyran-4-yl)cyclopropanecarboxamide] | 84 | 19 | 100 | – | – | – |
| CC1(C(=O)N[C@@H]2CCOC[C@H]2N2Cc3ccc(-c4noc(C(F)(F)F)n4)cc3C2=O)COC1 [Example 192, 3-methyl-N-((3S,4R)-3-(1-oxo-6-(5-(trifluoromethyl)-1,2,4-oxadiazol-3-yl)-1,3-dihydro-2H-isoindol-2-yl)tetrahydro-2H-pyran-4-yl)oxetane-3-carboxamide] | 40 | 6 | 99 | – | – | – |
| CC1(C(=O)N[C@H]2CCCC[C@@H]2N2Cc3ccc(-c4noc(C(F)(F)F)n4)cc3C2=O)COC1 [Example 193, 3-methyl-N-((1S,2S)-2-(1-oxo-6-(5-(trifluoromethyl)-1,2,4-oxadiazol-3-yl)-1,3-dihydro-2H-isoindol-2-yl)cyclohexyl)oxetane-3-carboxamide] | 32 | 4 | 43 | – | – | – |
| CC1(C(=O)N[C@@H]2CCCC[C@H]2N2Cc3ccc(-c4noc(C(F)(F)F)n4)cc3C2=O)CNC1 [Example 194, 3-methyl-N-((1R,2R)-2-(1-oxo-6-(5-(trifluoromethyl)-1,2,4-oxadiazol-3-yl)-1,3-dihydro-2H-isoindol-2-yl)cyclohexyl)azetidine-3-carboxamide] | 26 | 3 | 100 | – | – | – |
| CC(=O)N1CC(C)(C(=O)N[C@@H]2CCCC[C@H]2N2Cc3ccc(-c4noc(C(F)(F)F)n4)cc3C2=O)C1 [Example 195, 1-acetyl-3-methyl-N-((1R,2R)-2-(1-oxo-6-(5-(trif1uoromethyl)-1,2,4-oxadiazol-3-yl)-1,3-dihydro-2H-isoindol-2-yl)cyclohexyl)azetidine-3-carboxamide] | 57 | 1 | 98 | – | – | – |
